# Measurements as given in patent US20240182526A1, “COMPOSITIONS AND METHODS FOR MODULTING INFLAMMATORY AND DEGENERATIVE DISORDER” (University of Southern California, priority 2021, published 2024).
# “Also recorded” adds a separate entry of the source.
# How the values were obtained:
# YAP1 = assay: Western blot of YAP1 in LIF-treated pig articular chondrocytes; format: cell-based; conditions: 4 and 24 hours
# Experimental: (§1) For standard western blot, treated and non-treated cells were lysed in RIPA Lysis and Extraction Buffer (Pierce, Rockford, IL) containing protease inhibitors (Pierce) followed by sonication with a 15-second pulse at a power output of 2 using the VirSonic 100 (SP Industries Company, Warminster, PA). Protein concentrations were determined by BCA protein assay (Pierce). Proteins were resolved with SDS-PAGE utilizing 4-15% Mini-PROTEAN TGX Precast Gels and transferred to Trans-Blot Turbo Transfer Packs with a 0.2-μm pore-size nitrocellulose membrane. The SDS-PAGE running buffer, 4-15% Mini-PROTEAN TGX Precast Gels, Trans-Blot Turbo Transfer Packs with a 0.2-μm pore-size nitrocellulose membrane was purchased from Biorad (Hercules, CA). Nitrocellulose membranes were blocked in 5% nonfat milk in 0.05% (v/v) Tween 20 (PBST) (Corning, Manassas, VA). […] Quantification of blots was performed using ImageJ 1.44 followed by Prism9 for analysis.
# Experiments were performed to determine whether R805 is inclined to shift the signaling outputs downstream of gp130 promoting differential regulation similar to genetic ablation of Y814. As a readout, protein levels of phosphorylated SRC, MAPK (ERK 1/2) and NF-κB were measured in response to OSM while STAT3 and YAP1 levels were evaluated in response to LIF.
# MAPK (ERK 1/2) = assay: Western blot of MAPK (pERK 1/2) in OSM-stimulated pig articular chondrocytes; format: cell-based
# Experimental: as §1, with “VA). Membranes were then incubated with primary antibodies p-gp130 Y814 (Evseenko lab, AbClonal), p-AKT (cat #4060, Cell Signaling), p-ERK 1/2 (cat #9106, Cell Signaling), p-Y416-SRC (cat #1246F, Novus Biologicals), p-gp130 (cat #1453R, Bioss USA) and p-NFκBp65 (cat #8242, Cell Signaling), and/or YAP1 (cat #4912, Cell Signaling). Histone H3 (cat #9515, Cell Signaling) was used as loading control.” for “VA).”
# [1] = system: pro-inflammatory signaling in osteoarthritic chondrocytes; assay: Western blot of pro-inflammatory signaling proteins in osteoarthritic chondrocytes; format: cell-based, human; conditions: 4 and 24 hours
# Experimental: as §1, with “VA). Membranes were then incubated with primary antibodies p-gp130 Y814 (Evseenko lab, AbClonal), p-AKT (cat #4060, Cell Signaling), p-ERK 1/2 (cat #9106, Cell Signaling), p-Y416-SRC (cat #1246F, Novus Biologicals), p-gp130 (cat #1453R, Bioss USA) and p-NFκBp65 (cat #8242, Cell Signaling), and/or YAP1 (cat #4912, Cell Signaling). Histone H3 (cat #9515, Cell Signaling) was used as loading control.” for “VA).”
# STAT3 = assay: Western blot of STAT3 signaling in osteoarthritic chondrocytes; format: cell-based, human; conditions: 4 and 24 hours
# Experimental: as §1, with “VA). Membranes were then incubated with primary antibodies p-gp130 Y814 (Evseenko lab, AbClonal), p-AKT (cat #4060, Cell Signaling), p-ERK 1/2 (cat #9106, Cell Signaling), p-Y416-SRC (cat #1246F, Novus Biologicals), p-gp130 (cat #1453R, Bioss USA) and p-NFκBp65 (cat #8242, Cell Signaling), and/or YAP1 (cat #4912, Cell Signaling). Histone H3 (cat #9515, Cell Signaling) was used as loading control.” for “VA).”
compound,measurement,setting,value
Cc1ccc(-c2csc(NC(=O)c3ccccn3)n2)cc1 [Peptide R805],YAP1 downstream of LIF,YAP1,minimal inhibitory effect
same,MAPK (pERK 1/2) activation induced by OSM,MAPK (ERK 1/2),markedly suppressed
same,pro-inflammatory signaling in diseased tissue,[1],markedly suppressed; also recorded: prevents pro-inflammatory signaling in diseased tissue
same,STAT3 signaling in diseased joint cells,STAT3,minimally affected STAT3 signaling in a diseased joint
